Test systems include OVCAR-4 ovarian; CCRF-CEM leukemia; HOP-92 NSCLC; HOP-62 NSCLC; PC-3 prostate; 786-0 renal; EKVX NSCLC; SNB-75 CNS; UACC-257 melanoma; SK-MEL-2 melanoma.
Assay in all cases: DTP human tumour cell line panel, 48 h

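Exposure lasted 48 hours, with cells grown in 96-well plates and compounds tested at five concentrations. GI50 marks 50% less growth. The concentration for full growth arrest is given as TGI.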

In general, GI50 refers to the concentration that inhibits growth by half. One may read the TGI as the concentration giving total growth inhibition. `CCN(CCNc1ccc(C)c2sc3cc(Cl)ccc3c(=O)c12)CC(C)O` (centres undefined): the GI50 was 4.92 µM with OVCAR-4 ovarian; 2.02 µM with CCRF-CEM leukemia; 1.61 µM with HOP-92 NSCLC; 1.52 µM with HOP-62 NSCLC; 1.74 µM in the test with PC-3 prostate; 1.44 µM in the test with 786-0 renal. The GI50 is 2.28 µM in the test on EKVX NSCLC and 1.75 µM with SNB-75 CNS. In addition, the TGI in the test with OVCAR-4 ovarian amounted to 24.9 µM; with CCRF-CEM leukemia, 4.27 µM; in the test on HOP-92 NSCLC, 4.28 µM; in the test on HOP-62 NSCLC it was 2.86 µM; with PC-3 prostate it was 3.31 µM; in the test with 786-0 renal, 2.75 µM. Further, the TGI is 7.3 µM in the test with EKVX NSCLC and 3.57 µM in the test on SNB-75 CNS.

For `O=C1/C(=C/c2ccc3c(c2)OCO3)CCC1CN1CCOCC1` (centres undefined), the TGI was 18.8 µM in the test on OVCAR-4 ovarian; 22.6 µM with UACC-257 melanoma; 5.91 µM with CCRF-CEM leukemia; 28.6 µM in the test with SK-MEL-2 melanoma; 29.3 µM in the test on HOP-92 NSCLC; 25.6 µM in the test on HOP-62 NSCLC. Further, the TGI in the test with PC-3 prostate came to 4.49 µM; with 786-0 renal, 11.3 µM; in the test on EKVX NSCLC, 34.7 µM; in the test on SNB-75 CNS, 28.7 µM.

For `C=CCNCCCN1C(=O)c2ccc3c4c(ccc(c24)C1=O)C(=O)N(CCCNCC=C)C3=O`, the GI50 in the test on OVCAR-4 ovarian is 0.143 µM; with UACC-257 melanoma it was 0.333 µM; in the test on CCRF-CEM leukemia, 0.349 µM; with SK-MEL-2 melanoma it was 0.364 µM; with HOP-92 NSCLC, 1.56 µM; in the test on HOP-62 NSCLC, 0.372 µM. The GI50 in the test on PC-3 prostate was 0.589 µM; with 786-0 renal it was 0.831 µM; in the test on EKVX NSCLC, 0.295 µM; with SNB-75 CNS it was 0.999 µM. Also, the TGI in the test with OVCAR-4 ovarian is 0.307 µM; in the test with UACC-257 melanoma it was 1.2 µM; in the test with CCRF-CEM leukemia, 3.78 µM; in the test on SK-MEL-2 melanoma it was 1.7 µM; with HOP-92 NSCLC, 7.83 µM; with HOP-62 NSCLC it was 1.72 µM. In addition, the TGI in the test with PC-3 prostate was 11 µM; in the test on 786-0 renal, 4.7 µM; with EKVX NSCLC, 1.09 µM; in the test on SNB-75 CNS, 2.23 µM.

As for `C=CC1=C[C@@H]2[C@@H]3O[C@]4(CC[C@H](O4)[C@@H](C)C[C@@H](O)C3=O)C[C@H](O)C3=NCC[C@@]32CC1`, the GI50 with OVCAR-4 ovarian, in the test on UACC-257 melanoma, in the test on CCRF-CEM leukemia, in the test with SK-MEL-2 melanoma, with HOP-92 NSCLC and in the test with HOP-62 NSCLC was under 0.00333 µM in each case. Besides, the GI50 with PC-3 prostate, in the test with 786-0 renal, with EKVX NSCLC and in the test on SNB-75 CNS was under 0.00333 µM each time. The TGI in the test with OVCAR-4 ovarian is 0.00522 µM; in the test with UACC-257 melanoma, 0.00486 µM; with CCRF-CEM leukemia it was over 33.3 µM; in the test on SK-MEL-2 melanoma, 0.0117 µM; in the test on HOP-92 NSCLC, 0.00606 µM; in the test on HOP-62 NSCLC, 0.0075 µM. The TGI is 0.0122 µM with PC-3 prostate, 0.00341 µM in the test on 786-0 renal, 0.00345 µM in the test on EKVX NSCLC and under 0.00333 µM in the test on SNB-75 CNS.

`Cn1ccc2c(c1=O)C(=O)c1nccc3c1c-2nc1ccccc13`: the GI50 in the test on OVCAR-4 ovarian is 1.31 µM; in the test on CCRF-CEM leukemia, 2.21 µM; in the test on HOP-92 NSCLC, 1.81 µM; with HOP-62 NSCLC it was 1.45 µM; in the test with PC-3 prostate it was 1.69 µM; in the test with 786-0 renal, 1.64 µM. For the same molecule, the GI50 is 1.65 µM with EKVX NSCLC and 1.17 µM in the test with SNB-75 CNS. The TGI in the test on OVCAR-4 ovarian was 2.6 µM; with CCRF-CEM leukemia it was over 100 µM; in the test on HOP-92 NSCLC, 20.4 µM; in the test with HOP-62 NSCLC, 2.81 µM; with PC-3 prostate it was 3.64 µM; with 786-0 renal, 3.18 µM. The results for the TGI with EKVX NSCLC and in the test on SNB-75 CNS were 3.16 µM and 2.43 µM, respectively.

For `O=C1C=C[C@@]23C[C@@H](Nc4c(O)c5c6c(c42)=NCCC=6C=N5)SC3=C1`, the GI50 with OVCAR-4 ovarian is 1.83 µM; with UACC-257 melanoma, 1.67 µM; with SK-MEL-2 melanoma, 1.94 µM; in the test on HOP-92 NSCLC it was 3.18 µM; with PC-3 prostate, 2.42 µM; with 786-0 renal it was 4.34 µM. Besides, the GI50 was 7.74 µM with EKVX NSCLC and 12 µM with SNB-75 CNS. Also, the TGI with OVCAR-4 ovarian is 3.27 µM; in the test with UACC-257 melanoma, 3.04 µM; with CCRF-CEM leukemia, over 27 µM; in the test with SK-MEL-2 melanoma, 4.03 µM; in the test on HOP-92 NSCLC, 10.2 µM; in the test with PC-3 prostate it was 7.61 µM. Further, the figures for the TGI in the test with 786-0 renal, with EKVX NSCLC and in the test on SNB-75 CNS were 14.6 µM, 20.2 µM and 25.3 µM, respectively.

The values are drawn from PubChem BioAssay (NCI).
